According to patent US10765664B2, “Treatment of infectious diseases” (CHILDREN'S MEDICAL CENTER CORPORATION, priority 2015, dated 2020):
Where two headings read alike, the source gives them in different places.

Legend:
IFITM3 = IFITM3 mRNA in THP-1 cells stimulated with cytokines or TLR agonists, real time PCR; assay type: cell-based, human; settings: for IFITM3 mRNA induction: data not shown (Example 3)
[1] = in vivo; cited from earlier work
[2] = in vivo; cited from earlier work; remark: listed apart in the source
RIG-I = RIG-I gene transcription in HeLa cells; assay type: cell-based, human
THP-1 cells = test: Cellular acidification of THP-1 cells, Lysotracker Red flow cytometry; settings: 24 hrs
HIV-1Bal/ZsGreen1 = assay type: cell-based; settings: pretreatment with 1 μM NTZ
[3] = system: MTb-infected THP-1 cells and human monocytes; settings: through inhibition of NQO1; cited from earlier work
nonreplicating MTb = settings: cited from earlier work
HIV LTR [4] = assay type: cell-based; settings: for HIV transcriptional activation (LTR-Renilla): NTZ 5 or 10 μM pretreatment
HIV LTR [5] = assay type: cell-based
[6] = system: Zaire ebolavirus GP-pseudotyped lentivirus; test: organism not typed; assay type: cell-based
HIV = assay type: cell-based; settings: MDM or AM/lymphocyte system; expected
PKR [7] = test: PKR gene transcription in HeLa cells; assay type: cell-based, human
X4-tropic HIV = settings: human PBMC, with glucocorticoids; cited from earlier work
PKR [8] = molecular target: PKR (Homo sapiens, UniProt P19525); settings: hepatoma cells; cited from earlier work
HCV = settings: added to ribavirin plus pegylated IFN; cited from earlier work
influenza = settings: in vivo; cited from earlier work
live Ebola virus = assay type: cell-based
H37Rv-mCherry MTb = assay type: cell-based, Mycobacterium tuberculosis; settings: concentration-dependent; 0, 5, 10, 15, or 20 μM NTZ pretreatment
MTb = settings: by inhibiting the mTOR pathway; cited from earlier work
[9] = tizoxanide after a 500 mg dose of NTZ; cited from earlier work

PKR (Homo sapiens, UniProt P19525), sequence (P19525 whole entry): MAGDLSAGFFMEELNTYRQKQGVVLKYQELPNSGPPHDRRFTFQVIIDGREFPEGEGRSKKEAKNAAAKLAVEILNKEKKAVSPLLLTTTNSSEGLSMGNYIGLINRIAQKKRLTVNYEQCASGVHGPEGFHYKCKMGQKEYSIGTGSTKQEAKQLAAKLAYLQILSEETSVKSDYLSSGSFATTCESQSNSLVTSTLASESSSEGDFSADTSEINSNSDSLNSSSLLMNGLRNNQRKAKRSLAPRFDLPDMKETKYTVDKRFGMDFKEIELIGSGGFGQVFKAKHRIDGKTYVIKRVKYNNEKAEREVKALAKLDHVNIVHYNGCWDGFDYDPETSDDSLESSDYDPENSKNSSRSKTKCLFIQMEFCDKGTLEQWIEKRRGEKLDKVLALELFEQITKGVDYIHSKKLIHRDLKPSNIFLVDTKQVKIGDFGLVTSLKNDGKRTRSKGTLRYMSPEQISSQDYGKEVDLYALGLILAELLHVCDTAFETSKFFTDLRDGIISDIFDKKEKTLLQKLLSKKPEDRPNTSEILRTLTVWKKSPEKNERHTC

## IL-1β: recombinant IL-1β
IFITM3; THP-1 cells, by 48 hrs
  IFITM3 mRNA vs untreated control cells: significantly elevated

## MCP-1: MCP-1 cytokine treatment
IFITM3
  IFITM3 mRNA induction: not induced

## CC(=O)Oc1ccccc1C(=O)Nc1ncc(Cl)s1 [RM-5038]
[1]
  tolerability compared to NTZ: better tolerated
[2]
  absorption in the GI tract compared to NTZ: better absorbed

## IL-6: recombinant IL-6
IFITM3; THP-1 cells, by 24 hours post-stimulation
  IFITM3 transcript levels: significant increase

## Pam3Cys
IFITM3; THP-1 cells, TLR agonist 100 ng/ml, 24 and 48 hours
  IFITM3 gene expression: significantly induced

## CC(=O)Oc1ccccc1C(=O)Nc1ncc([N+](=O)[O-])s1 [NTZ, [2-[(5-nitro-1,3-thiazol-2-yl)carbamoyl]phenyl] ethanoate]
RIG-I
  transcription of RIG-I gene: induce
THP-1 cells
  intracellular acidity: increased intracellular acidity
HIV-1Bal/ZsGreen1
  HIVBALZsGreen1 infection of MDM: suppresses
[3]
  autophagy: promotes autophagy
Nonreplicating MTb
  reduction of viable, nonreplicating MTb: over 2 log units
HIV LTR [4]; MTb infection, not shown
  activation of the integrated LTR-Renilla reporter gene: significantly inhibits
HIV LTR [4]; Sendai virus infection
  HIV transcriptional activation (LTR-Renilla): inhibited
HIV LTR [4]; stimulation with TLR2 agonist Pam3Cys
  HIV transcriptional activation (LTR-Renilla): inhibited
HIV LTR [5]; TLR2 agonist Pam3Cys, 10 μM NTZ, 6 hrs
  LTR reactivation (ZsGreen1): reduces
HIV LTR [5]; direct MTb infection, 6 hours
  LTR reactivation (ZsGreen1): reduces
[6]
  infection by Zaire Ebolavirus GP-pseudotyped lentiviral particles: inhibits
[6]; THP-1, read-out: inhibition of ZE-LV infection
  inhibition at 8 µM: ~40%
HIV
  MTb augmentation of HIV replication: suppressed
PKR [7]
  transcription of PKR gene: induce
X4-tropic HIV
  suppression of X4-tropic HIV replication: synergizes
PKR [8]
  autophosphorylation of PKR: directly induces
HCV
  HCV virological response: significantly improve
influenza
  treatment of uncomplicated influenza: efficacy
Live Ebola virus
  inhibition of live Ebola virus: inhibit
H37Rv-mCherry MTb
  MTb infection of THP-1 cells: potently inhibits
MTb
  MTb proliferation: suppress

## IFN-γ: IFN-γ treatment
IFITM3
  IFITM3 mRNA induction: strongly induced

## O=C(Nc1ncc([N+](=O)[O-])s1)c1ccccc1O [tizoxanide]
[9]
  peak mean plasma concentration: 26 µM
